Laboratory results as given in article PMC12210739, “A sialic acid-binding protein in Toxoplasma gondii contains a conserved globular domain in apicomplexan parasites” (Parasites & Vectors, 2025).

Experiments:
[1] = system: TgSABP1-6′SL-PAA interaction; assay: Competitive BLI assay of TgSABP1-6′SL-PAA interaction; assay type: binding, Toxoplasma gondii; details: 5 μM TgSABP1; for Inhibition of binding of recombinant TgSABP1 to 6′SL-PAA: SA 5, 10, 20 mM, lactose 25, 50, 100 mM, oseltamivir phosphate 30, 60 mM
Experimental: To evaluate small molecule-mediated inhibition of TgSABP1-6′SL-PAA interaction, streptavidin biosensors pre-loaded with 2.4 μM 6′SL-PAA until saturation (threshold ≥ 1.5 nm shift) were subjected to competitive binding assays on an Octet K2 system. Four test compounds were diluted to different concentrations in PBST-BSA, including SA (5, 10, and 20 mM), lactose (25, 50, and 100 mM), oseltamivir phosphate (30 and 60 mM), and eltrombopag (5 and 50 μM). The His-tagged TgSABP1 protein was diluted to 5 μM with different concentrations of compounds and incubated for 15 min at room temperature. The competition binding test included equilibration for 90 s in the compound solution, association for 60–180 s in the pre-treated protein solution, dissociation for 60–90 s in the compound solution, and regeneration [3 × 20 s pulses in HCl (pH 1.0) followed by PBS neutralization]. Data parameters were analyzed by ForteBio Data Analysis software (v 9.0.0.14) using the average reference sensors’ subtraction method and 1:1 binding model. All experiments were repeated in triplicate.

[2] = system: T. gondii RH-RFP tachyzoites; assay: T. gondii host cell invasion assay in Vero cells; assay type: cell-based; details: Toxoplasma gondii
Experimental: (§1) The anti-invasive activity of eltrombopag against T. gondii was assessed using a fluorescence-based invasion assay with modifications to the established protocols. Toxoplasma gondii RH strains stably expressing red fluorescence protein were added to 2 × 10^5 Vero cells (multiplicity of infection [MOI] of 1:1) pre-treated with the drug or the equivalent volume of DMSO for 1 h. One hour after the parasites were added, the parasites were removed and the cells were gently washed with PBS three times, then incubated with DMEM containing 2% FBS. After 16 h of cultivation, the cells were fixed with 4% PFA and stained with DAPI (Beyotime, Shanghai, China). The numbers of parasitophorous vacuoles (PVs) and host cells were counted in a total of 20 randomly selected fields under a fluorescence microscope (Leica DM4B, Wetzlar, Germany). Invasion efficiency = (number of PVs/number of DAPI^+ cells) × 100%. Meanwhile, the number of parasites in each vacuole was determined. Seventy vacuoles from each coverslip were counted across at least three biological replicates. Intra-vacuolar proliferation was expressed as the mean number of parasites per PV.

[3] = system: T. gondii RH-RFP tachyzoites; assay: Intra-vacuolar proliferation (parasites per vacuole); assay type: cell-based, Toxoplasma gondii
Experimental: as §1

T. gondii = assay: Anti-parasite activity in vivo

**Q.** With `OC[C@H]1O[C@@H](O[C@H]2[C@H](O)[C@@H](O)C(O)O[C@@H]2CO)[C@H](O)[C@@H](O)[C@H]1O` (mixture of isomers) [lactose] as the molecule, how does the “Inhibition of binding of recombinant TgSABP1 to 6′SL-PAA” value (“Inhibition of binding … to 6′SL-PAA” below) [1] read?
**A.** did not

**Q.** For `CC(=O)N[C@H]1[C@H]([C@H](O)[C@H](O)CO)OC(O)(C(=O)O)C[C@@H]1O` (some centres unmarked) [SA, sialic acid], which “Inhibition of binding … to 6′SL-PAA” value [1] is on record?
**A.** exhibited the inhibition on the binding of recombinant TgSABP1 to 6′SL-PAA in a concentration-dependent manner

**Q.** What does the source list for `CC1=NN(c2ccc(C)c(C)c2)C(=O)/C1=N\Nc1cccc(-c2cccc(C(=O)O)c2)c1O` [eltrombopag]?
**A.** Blocking of binding of recombinant TgSABP1 to 6′SL-PAA ([1]; 50 μM compound): significantly blocked; inhibition at 10 µM ([2]; 10 μM, vs DMSO control, read-out: Inhibition rate of host cell invasion): 47.8%; inhibition at 20 µM ([2]; 20 μM, vs DMSO control, read-out: Inhibition rate of host cell invasion): 57.7%; IC50 ([2]; calculated, read-out: IC50 for anti-invasion of T. gondii): 11.6 µM; Intracellular parasite replication ([3]; 10 μM): without affecting intracellular parasite replication; Replication of invaded parasites ([3]; 20 μM, vs DMSO control): significantly impaired; Anti-parasite activity in vivo (T. gondii): did not show any anti-parasite activity in vivo

**Q.** `CCOC(=O)C1=C[C@@H](OC(CC)CC)[C@H](NC(C)=O)[C@@H](N)C1` [oseltamivir phosphate] was tested. Which “Inhibition of binding … to 6′SL-PAA” value [1] did it give?
**A.** dose-dependent inhibition

**Q.** What about the “Blocking of binding of recombinant TgSABP1 to 6′SL-PAA” value ([1]; 60 mM compound) of the same molecule?
**A.** significantly blocked
